“And” between values parts separate entries of the source, which are not always exact repeats. Identical values can stand only once.
Experiments:
phospholamban serine-16 = assay: Phosphorylation of PLB at serine-16 in failed LV tissue homogenate with/without PK inhibitor and CCM signal (Western blot); format: biochemical, dog; conditions: for P-PLB serine-16: single samples
Experimental: (§1) The tissue homogenate was prepared in the following manner. […] The homogenate was then filtered through 4 layers of cheese cloth. The resulting homogenate was stored in ice and its protein concentration was determined by the Lowry method.
(§2) The CCM signals were delivered to the homogenate as follows. The homogenate was diluted 2 fold in homogenate buffer and subsequently aliquotted 3 ml each in assay tubes. Assay tubes were divided into 2 sets (Set A and Set B), each subset consisting of […]. CCM signals were delivered for 10″, 30″, 1′, 5′, 30′, and 60′ in one of the sets, while the other set served as time control. The reaction was stopped by adding concentrated SDS. Protein assay on all the samples were performed by Lowry method.
(§3) Additional experiments of tissue homogenate were carried out in the presence and absence of protein kinese inhibitors. The homogenate was the same as above, from dogs with heart failure. […] CAS 62996-74-1.

[1] = test system: phospholamban threonin-17; assay: Phosphorylation of PLB at threonine-17 in failed LV tissue homogenate with/without PK inhibitor and CCM signal (Western blot); format: biochemical, dog; conditions: for P-PLB threonin-17: single samples; for P-PLB threonin-17, Av: average
Experimental: as §1, §2, §3
The following tables summarize the experimental results for theronin-17: […]

platelet aggregation = conditions: advertised; cited from earlier work
[2] = test system: human malignant glioma cell lines; conditions: advertised; cited from earlier work
normal cells = conditions: advertised; cited from earlier work
[3] = test system: dogs with intracoronary microembolization-induced chronic HF; assay: 3 months therapy with beta-blocker alone, beta-blocker + CCM or no therapy: LV EDV, ESV, EF; format: in vivo, dog
Experimental: In a set of experiments, dogs with intracoronary microembolization-induced chronic HF (LV EF 30%-40%) were randomized to 3 months therapy with either BB (beta-blockers) alone (extended release metoprolol succinate, 100 mg once daily), extended release metoprolol succinate (100 mg, once daily) combined with CCM therapy, or to no therapy at all (Control). LV end-diastolic volume (EDV), end-systolic volume (ESV) and EF were measured before randomization (PRE) and after 3 months of therapy (POST). To determine “treatment effect”, the change A between PRE and POST therapy for each group was compared among the 3 study groups.

[4] = Control + PK Inhibitor, no CCM, 10 sec
[5] = Control + PK Inhibitor, no CCM, 20 sec
[6] = Control + PK Inhibitor, no CCM, 30 sec
[7] = PK Inhibitor + CCM delivered for 60 sec

Compound: CN[C@@H]1C[C@H]2O[C@@](C)([C@@H]1OC)n1c3ccccc3c3c4c(c5c6ccccc6n2c5c31)C(=O)NC4 [STAUROSPORIN]
- P-PLB serine-16 (phospholamban serine-16; [4]): 8.0 and 9.0
- P-PLB serine-16 (phospholamban serine-16; [5]): 12.2 and 14.0
- P-PLB serine-16, Av (phospholamban serine-16; Control + PK Inhibitor, no CCM, 30 sec, average): 9.4
- P-PLB serine-16 (phospholamban serine-16; [6]): 6.8 and 9.7
- response of serine-16 phosphorylation to CCM in presence of kinese inhibitor (phospholamban serine-16; HF dog tissue homogenate): responded close to usual
- P-PLB serine-16 (phospholamban serine-16; PK Inhibitor + CCM delivered for 30 sec): 14.3 and 13.0
- P-PLB serine-16 (phospholamban serine-16; [7]): 22.7
- P-PLB threonin-17 [1, 4]: 8.9 and 9.5
- P-PLB threonin-17, Av [1, 5]: 9.0
- P-PLB threonin-17 [1, 6]: 8.2
- response of threonin-17 phosphorylation to CCM in presence of kinese inhibitor ([1]; HF dog tissue homogenate): reduced and delayed response
- P-PLB threonin-17 ([1]; PK Inhibitor + CCM delivered for 10 sec): 14.6 and 9.9 and 8.7
- P-PLB threonin-17 ([1]; PK Inhibitor + CCM delivered for 20 sec): 8.3 and 15.0
- P-PLB threonin-17, Av [1, 7]: 15.0
- platelet aggregation induced by collagen or ADP (platelet aggregation): inhibits platelet aggregation
- apoptosis [2]: Induces apoptosis
- cell cycle arrest (normal cells): Arrests normal cells at the G1 checkpoint

Compound: COCCc1ccc(OCC(O)CNC(C)C)cc1 (stereo not drawn) [BB, metoprolol succinate]
- LV EDV ([3]; BB alone): prevented the increase in EDV
- LV EF ([3]; BB alone): significantly increased EF
- LV ESV ([3]; BB alone): significantly reduced ESV
- LV EDV ([3]; BB combined with CCM): prevented the increase in EDV
- LV EF ([3]; BB combined with CCM): significantly increased EF
- LV ESV ([3]; BB combined with CCM): significantly reduced ESV
- Treatment effect (Δ) LV EF, PRE to POST ([3]; BB combined with CCM therapy): 12±1%

Source: US8352031B2, “Protein activity modification” (Impulse Dynamics NV, priority 2004, dated 2013)
